# In ChEMBL document CHEMBL1126718, “Potent in vitro and in vivo inhibitors of platelet aggregation based upon the Arg-Gly-Asp-Phe sequence of fibrinogen. A proposal on the nature of the binding interaction between the Arg-guanidine of RGDX mimetics and the platelet GP IIb-IIIa receptor” (J Med Chem, 1993):
# Peptide text beside a SMILES is read from it.
# What was measured:
# Canis familiaris [1] = species: Canis familiaris; assay: In vitro inhibition of ADP-induced platelet aggregation in canine platelet rich plasma (PRP); type: functional; details: Canis lupus familiaris
# [2] = In vitro inhibition of ADP-induced platelet aggregation in human platelet rich plasma (PRP); type: functional
# Canis familiaris [3] = species: Canis familiaris; assay: In vitro inhibition of ADP-induced platelet aggregation in canine platelet rich plasma (PRP); Inactive; type: functional, Canis lupus familiaris
# [4] = In vitro inhibition of ADP-induced platelet aggregation in platelet rich plasma (PRP); type: functional
IC50 (Canis familiaris [1]) [nM],IC50 [2] [nM],IC50 (Canis familiaris [3]),IC50 [4] [nM],Compound
180,,,,N=C(N)c1ccc(CC(=O)CCC(=O)N[C@@H](CC(=O)O)C(=O)N[C@@H](Cc2ccccc2)C(=O)O)cc1
53,42,,,N=C(N)c1ccc(CCCCC(=O)N[C@@H](CC(=O)O)C(=O)N[C@@H](Cc2ccccc2)C(=O)O)cc1
,,Not Active,,N=C(N)c1ccc(CCCC(=O)N[C@@H](CC(=O)O)C(=O)N[C@@H](Cc2ccccc2)C(=O)O)cc1
82,90,,,N=C(N)c1ccc(/C=C/CCC(=O)N[C@@H](CC(=O)O)C(=O)N[C@@H](Cc2ccccc2)C(=O)O)cc1
90,120,,,N=C(N)c1ccc(C#CCCC(=O)N[C@@H](CC(=O)O)C(=O)N[C@@H](Cc2ccccc2)C(=O)O)cc1
4300,3200,,,N=C(N)c1cccc(/C=C/CCCC(=O)N[C@@H](CC(=O)O)C(=O)N[C@@H](Cc2ccccc2)C(=O)O)c1
5800,,,,N=C(N)c1cccc(CCCCCC(=O)N[C@@H](CC(=O)O)C(=O)N[C@@H](Cc2ccccc2)C(=O)O)c1
,,,90000,N=C(N)NCCC[C@H](N)C(=O)NCC(=O)N[C@@H](CC(=O)O)C(=O)N[C@@H](Cc1ccccc1)C(=O)O (H-RGDF-OH)
